Source: patent publication US8940781B2, “Pesticidal composition and its use” (Sumitomo Chemical Company, Limited, priority 2010, dated 2015)

Test system: Rhizoctonia solani
Experiment: Soybean seed treatment test in soil contaminated by Rhizoctonia solani (disease control efficacy)
Format: in vivo, Rhizoctonia solani on soybean (variety: Natto shoryu)
Details: seed treatment of soybean; carboxamide compound alone 0.2 g/100 kg of seeds; cultivated 20 days in contaminated soil; versus non-treated plot
Protocol: A cyclohexanone solution (100 microL) containing prescribed amount (weight) of a test compound was applied on seeds of soybean (variety: Natto shoryu) (10 g) by using a rotary apparatus for seed treatment (Seed dresser, manufactured by Hans-Ulrich Hege GmbH).
One day after the application, plastic pot was filled with soil contaminated by Rhizoctonia solani, and the seeds treated with the test compounds were seeded in the soil and cultivated in a glass-greenhouse for 20 days (hereinafter referred to as “treated plot”).
Thereafter, the presence of disease caused by Rhizoctonia solani in the young plants which germinated from each seed was observed and disease severity was calculated according to the following calculation formula (1).
On the other hand, seeds of soybean which were not treated as above were cultivated in the same way as above (hereinafter referred to as “non-treated plot”) and the disease severity in the “non-treated plot” was calculated in the same way as the above “treated plot”. On the basis of the above disease severity in “treated plot” and “non-treated plot”, efficacy in “treated plot” was evaluated according to the following calculation formula (2). […]

Row | SMILES | efficacy (%)
1 | CC1CC(C)(C)c2cccc(NC(=O)c3cn(C)nc3C(F)F)c21 (centres unmarked) [carboxamide compound (1)] | 47.4
2 | Cc1nn(C)c(C)c1C(=O)Nc1cccc2c1C(C)CC2(C)C (centres unmarked) [carboxamide compound (5)] | 15.8
